Results reported in article PMC13224050, “Synthesis and characterization of a novel phosphatidylinositol 5-phosphate (PI(5)P) photoaffinity probe” (RSC Chemical Biology, 2026).

Key:
[1] = molecular target: T1, hTAF3 (Homo sapiens, UniProt Q5VWG9); test: photo-crosslinking with TAMRA click SDS-PAGE; assay type: binding; settings: covalent; 365 nm 30 min
T1 construct: gene TAF3; purified recombinant, bacterially expressed; abstract prints TAF1 instead
T1 sequence (Q5VWG9 1-929): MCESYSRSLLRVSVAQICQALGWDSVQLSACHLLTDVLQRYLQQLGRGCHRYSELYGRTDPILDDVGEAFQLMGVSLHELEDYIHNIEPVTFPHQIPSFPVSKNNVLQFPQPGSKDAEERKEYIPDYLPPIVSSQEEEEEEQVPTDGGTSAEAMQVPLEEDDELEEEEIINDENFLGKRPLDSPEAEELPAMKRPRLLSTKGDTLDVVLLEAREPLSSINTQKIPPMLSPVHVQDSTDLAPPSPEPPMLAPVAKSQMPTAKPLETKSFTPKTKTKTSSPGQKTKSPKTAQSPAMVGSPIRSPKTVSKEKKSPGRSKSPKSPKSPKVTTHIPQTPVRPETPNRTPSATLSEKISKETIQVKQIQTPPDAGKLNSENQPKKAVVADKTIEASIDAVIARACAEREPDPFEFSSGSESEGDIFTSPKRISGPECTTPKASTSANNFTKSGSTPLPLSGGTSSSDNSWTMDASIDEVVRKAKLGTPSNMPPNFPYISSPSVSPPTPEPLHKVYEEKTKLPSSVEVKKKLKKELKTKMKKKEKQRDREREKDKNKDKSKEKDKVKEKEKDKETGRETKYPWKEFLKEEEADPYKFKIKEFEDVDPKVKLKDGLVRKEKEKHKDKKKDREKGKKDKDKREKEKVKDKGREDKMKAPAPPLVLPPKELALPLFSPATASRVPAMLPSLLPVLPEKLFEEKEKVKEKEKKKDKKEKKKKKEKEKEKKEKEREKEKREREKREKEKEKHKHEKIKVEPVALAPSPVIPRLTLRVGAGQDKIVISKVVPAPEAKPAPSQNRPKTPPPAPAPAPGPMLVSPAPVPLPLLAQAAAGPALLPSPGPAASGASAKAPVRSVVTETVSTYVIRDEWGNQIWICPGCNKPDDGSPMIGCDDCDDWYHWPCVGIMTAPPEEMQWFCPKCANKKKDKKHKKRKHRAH

[2] = molecular target: T2, hUHRF1 (Homo sapiens, UniProt Q96T88); test: microscale thermophoresis; assay type: binding
T2 construct: gene UHRF1; purified recombinant, bacterially expressed; domains UBL, TTD, PHD, SRA, RING
T2 sequence (Q96T88 1-793): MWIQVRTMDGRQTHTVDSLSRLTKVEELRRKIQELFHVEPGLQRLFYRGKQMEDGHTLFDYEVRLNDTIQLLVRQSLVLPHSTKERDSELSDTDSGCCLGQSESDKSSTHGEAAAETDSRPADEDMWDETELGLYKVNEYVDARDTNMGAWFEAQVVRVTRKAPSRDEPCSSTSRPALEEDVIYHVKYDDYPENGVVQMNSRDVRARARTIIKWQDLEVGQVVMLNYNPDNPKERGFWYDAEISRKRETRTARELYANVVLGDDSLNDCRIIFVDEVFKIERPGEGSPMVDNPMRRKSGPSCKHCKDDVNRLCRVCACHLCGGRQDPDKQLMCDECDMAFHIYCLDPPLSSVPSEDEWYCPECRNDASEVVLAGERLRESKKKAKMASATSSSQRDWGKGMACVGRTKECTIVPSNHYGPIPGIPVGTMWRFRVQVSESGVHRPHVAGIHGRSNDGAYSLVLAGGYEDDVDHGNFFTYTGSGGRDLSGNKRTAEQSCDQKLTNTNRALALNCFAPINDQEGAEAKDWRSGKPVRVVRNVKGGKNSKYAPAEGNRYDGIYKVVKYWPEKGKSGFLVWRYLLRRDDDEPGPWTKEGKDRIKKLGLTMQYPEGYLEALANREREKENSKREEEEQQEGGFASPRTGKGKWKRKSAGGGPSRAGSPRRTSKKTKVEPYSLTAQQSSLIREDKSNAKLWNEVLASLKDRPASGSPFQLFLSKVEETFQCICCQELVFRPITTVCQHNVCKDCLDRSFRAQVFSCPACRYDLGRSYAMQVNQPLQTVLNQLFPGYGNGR

In the case of `C#CCCCCCCCCCCC1(CCC(=O)O[C@H](COC(=O)CCCCCCCCCCCCCCC)COP(=O)(O)O[C@H]2[C@H](O)[C@@H](OP(=O)(O)O)[C@H](O)[C@@H](O)[C@H]2O)N=N1` [compound 9, PI(5)P diazirine probe], the “photo-crosslinking with TAMRA click SDS-PAGE” value [1] is reported as “confirming that the diazirine probe bound to bacterially expressed recombinant hUHRF1 and hTAF3”.
With `CCCCCCCCCCCCCCCC(=O)OC[C@H](COP(=O)(O)O[C@H]1[C@H](O)[C@@H](OP(=O)(O)O)[C@H](O)[C@@H](O)[C@H]1O)OC(=O)CCCCCCCCCCCCCCC` [compound 1, di-C16 : 0 PI(5)P] the Kd [2] was roughly 8.6 µM.
